{
  "source": "paper PMC6838142",
  "about": "“Nano-Antagonist Alleviates Inflammation and Allows for MRI of Atherosclerosis” (Nanotheranostics, 2019)",
  "key": {"IL-1β": {"system": "IL-1β", "assay": "IL-1β release, AlphaLISA", "type": "cell-based, mouse", "settings": "inflammasome experiment supernatants, 4 experiments", "experimental": "(§1) Cytokines were analyzed by EVE Technologies (https://www.evetechnologies.com) using the Luminex 31-Plex kit. Cell culture supernatants were diluted twice with PBS and provided in biological triplicates to EVE Technologies via overnight shipment in dry ice. Individual IL-1β and TNFɑ assays were performed using Perkin Elmer AlphaLISA kits, as per Supplementary Table S1 and vendor instructions.\n(§2) BMDMs or J774 cells were plated in 48-well plates at 2 x 10^5 per well. Next day, the medium was changed to Opti-MEM (100 μL per well) without serum and the cells were allowed to equilibrate for 3 h. Next, the cells were pretreated with the indicated concentrations of nanoparticles or controls for 3 h followed by the addition of LPS to some wells to the final LPS concentration of 50 ng/mL. LPS priming continued for another 2 h, following which DMSO (vehicle), Nigericin (5 μM) or adenosine triphosphate (ATP) (1 mM) were added to some wells. Cells were incubated for an additional 30 min and cell culture supernatants were collected on ice. Cells were washed with cold PBS once and lysed/processed as described in immunoblotting section. The supernatants (90 μL) were mixed with 10 μL of 10x SDS loading buffer (10% SDS, 10% Ficoll 400, 0.5 M Tris pH 6.8, 0.5 M DTT, and 0.001% bromophenol blue) and heat-denatured as described in the immunoblotting section. […]"}, "BMDMs [1]": {"system": "BMDMs", "assay": "DCFDA ROS assay", "type": "cell-based, mouse", "settings": "LPS (100 ng/mL) BMDMs, 12 experiments", "experimental": "GSH /GSSG, lactate dehydrogenase (LDH) and DCFDA assays were performed according to the manufacturer's instructions. The assays were purchased from vendors as indicated in Supplemental Table S1."}, "recombinant CCR2 protein": {"system": "recombinant CCR2 protein", "assay": "CCR2 receptor binding of nanoparticles to immobilized recombinant CCR2", "set-up": "species or system human", "settings": "recombinant CCR2 2 µg/mL coated; nanoparticles 4 h room temperature; fluorescence 550/620 nm", "experimental": "A sandwich-type plate-based immunoassay was developed in-house to study CCR2 receptor binding. Black opaque plates (for fluorescence studies) or clear high protein binding plates (for absorbance studies) were coated with recombinant CCR2 protein at 2 µg/mL in PBS overnight at 4 °C. Plates were washed 5 times with PBS and treated as follows: for nanoparticles binding, varying concentrations of fluorescent nanoparticles or vehicle control (see above) in PBS were added to the opaque plates and incubated for 4 h at room temperature. For peptide competition/binding studies, recombinant human CCL2 was added in clear plates at varying concentrations in PBS simultaneously with a large excess of peptides (1 mM final concentration, dissolved in dimethylformamide) and incubated for 1 h at room temperature. All plates were washed 5 times with PBS and fluorescence in opaque plates was read at 550 nm excitation and 620 nm emissions. […] Clear plates were washed and incubated with 0.1 µg/mL streptavidin-HRP. Finally, clear plates were washed and incubated with SigmaFast OPD reagent in the presence of hydrogen peroxide-urea, as per the manufacturer's instructions. After 30 min incubation period at 37 °C, the plates were read at 450 nm on a multiwell plate reader as described above. Fluorescence emission values and OD at 450 nm were plotted against concentration using a 4-parametric fit."}, "BMDMs [2]": {"system": "BMDMs", "assay": "GSH/GSSG assay in LPS-primed BMDMs", "type": "cell-based, mouse", "settings": "LPS-primed (100 ng/mL) BMDMs, 5 µM CCTV vs vehicle, 8 experiments"}, "RAW-Blue cells": {"system": "RAW-Blue cells", "assay": "Nanoparticle cell-surface binding/uptake in RAW-Blue cells (rhodamine fluorescence)", "type": "cell-based, mouse", "settings": "1 and 10 µM nanoparticles with 1% rhodamine; 550/620 nm", "experimental": "A schematic representation of nanoparticle screening is depicted in Supplementary Figure S4. Briefly, RAW-Blue NFkB reporter cells were cultured as per the manufacturer's recommendations. Cells were seeded and cultured overnight in black opaque 96-well plates with a clear bottom at 50,000 per well. Cells were then treated with 1 and 10 µM of nanoparticles containing 1% rhodamine and positive and negative controls (see below) for 30 min on ice followed by washing steps with cold PBS. Next, lipopolysaccharide (LPS) was added at 100 ng/mL and incubated for 6 h at 37 °C, following which the cells were washed again and incubated for 18 h at 37 °C in fresh medium. Next, 20 µL of supernatant was collected and assayed using SEAP detection reagent in a separate clear bottom 96-well plate as per Invivogen instructions (http://www.invivogen.com). Absorbance at OD 650 nm was recorded and was indicative of NFkB activation. In parallel, cells in the opaque plate were washed again and fluorescence was read at 550 nm excitation and 620 nm emission. This signal from rhodamine was indicative of nanoparticle uptake. […] All analysis was performed using Molecular Devices i3 multi-mode plate reader and SoftMax Pro software version 6.2 (Molecular Devices)."}, "TNFɑ": {"system": "TNFɑ", "assay": "TNFɑ release, AlphaLISA", "type": "cell-based, mouse", "settings": "inflammasome experiment supernatants, 4 experiments", "experimental": "as §1, §2"}, "[3]": {"system": "CCR2hiLy6Chi inflammatory cells in blood of ApoE-/- mice", "assay": "Flow cytometry of blood immune cells after injection", "type": "in vivo, mouse", "experimental": "Twenty-four hours after nanoparticle injection (see above), mice were euthanized and whole blood was collected via cardiac puncture. The cells were separated from plasma via centrifugation at 2500 rpm for 25 min at 4 °C and white blood cells were isolated after lysis of red blood cells with ACK lysis buffer. The cells were resuspended in 1% FBS in PBS (FACS buffer) on ice and stained with fluorophore-conjugated antibodies detecting CD11b, CD11c, CCR2, and Ly6C (Supplementary Table S1) for 30 min at room temperature. Cells were washed with FACS buffer three times and one time with PBS, and then fixed in 2% paraformaldehyde in PBS, pH 7.4. Samples were run on a Becton Dickinson LSR II flow cytometer and cell surface expression analysis of indicated markers was performed using FlowJo software."}, "CCR2": {"system": "CCR2", "assay": "Uptake in wild-type macrophages pre-treated with CCR2 inhibitor", "type": "cell-based, mouse", "settings": "BMS CCR2 22 10 nM, 6 h pre-treatment vs DMSO", "experimental": "Supplementary Figure S6. A) Separate channels for main manuscript Figure 1B.\nUptake of carboxyfluorescein-labeled CCTV or VTCC in cultured bone marrow derived macrophages from B)\nCCR2 knockout (KO, B6.129S4-Ccr2 /J) or wild-type (WT) mice; C) wild-type mouse-derived macrophages\npre-treated (6 h) with CCR2 inhibitor BMS CCR2 22 (10 nM) or DMSO as vehicle control. C)\n(1 picture or pasted object on this page, not shown here)"}},
  "note": "Entries after “also recorded” stand apart in the source; their conditions may differ.",
  "data": [
    {"substance": "CCTV", "values": [
      {"measurement": "IL-1β release", "setting": "IL-1β", "value": "confirmed the actions of CCTV"},
      {"measurement": "ROS production", "setting": "BMDMs [1]", "value": "inhibited ROS production in response to LPS; also recorded: significantly blunted"},
      {"measurement": "binding to immobilized CCR2", "setting": "recombinant CCR2 protein", "value": "bound to immobilized recombinant receptor protein in a dose dependent manner; also recorded: significant, dose-dependent binding"},
      {"measurement": "GSH levels", "setting": "BMDMs [2]", "value": "unable to restore GSH levels; also recorded: unaffected"},
      {"measurement": "GSSG levels", "setting": "BMDMs [2]", "value": "unable to restore GSH levels or reduce GSSG; also recorded: unaffected"},
      {"measurement": "cell-surface binding", "setting": "RAW-Blue cells", "value": "high cell-surface binding"},
      {"measurement": "TNFɑ release", "setting": "TNFɑ", "value": "completely unaffected"},
      {"measurement": "accumulation in CCR2-positive blood macrophage subpopulations", "setting": "[3]; 100 mg/kg, 24 h, three ApoE-/- mice/group", "value": "selectively accumulated in macrophage subpopulations positive for CCR2"},
      {"measurement": "nanoparticle-positive CCR2hiLy6Chi cells", "setting": "[3]; 100 mg/kg, 24 h, three ApoE-/- mice/group, vs VTCC", "value": "an increased number of these cells were CCTV positive compared to VTCC"},
      {"measurement": "number of macrophages that engulfed nanoparticles", "setting": "[3]; Supplementary Figure S9, CCTV vs VTCC", "value": "not due to a different number of macrophages that engulfed nanoparticles"},
      {"measurement": "uptake in macrophages pre-treated with BMS CCR2 22", "setting": "CCR2", "value": "drastically reduced"}
    ]}
  ]
}
